Like-named read-outs stand apart in the source and are kept apart here.

In one assay the target is T1, Human mTOR (FLAG-TOR) (Homo sapiens, UniProt P42345).
T1 construct: FLAG
The assay is described as follows: Human mTOR kinase assay with purified enzyme, DELFIA format. Format: biochemical. The method, boiled down:
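DELFIA readout: Eu-anti-P(T389)-S6K antibody (40 ng/mL, 1 h) on captured His6-S6K from the stopped reaction. Kinase step used purified FLAG-tagged human mTOR with test compound in HEPES (pH 7.4)/MnCl2/DTT buffer, 2 h at room temperature (linear 1–6 h), terminated by EDTA/EGTA.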

Assay [1] concerns the target T2, PI3K (Homo sapiens, UniProt P42336).
T2 construct: PI3 Kinase α IC50; other: PI3 Kinase α; other: PI3 Kinase α isoform, fluorescence polarization
In words: Fluorescence polarization assay for PI3K. The settings on record: read-out: PI3 Kinase α IC50. The assay is classed as biochemical. The gist of the method: (§1)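 Fluorescence-polarization competition readout: after 30–60 min of PIP2/ATP turnover in 1% DMSO, a stop mix with GST-GRP (70 nM) and red probe (10 nM) was added.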
In general terms: Polarisation of emitted light reports the rotation of a fluorescent probe.

The target in assay [2] is T3, PI3K (Homo sapiens, UniProt P48736).
T3 construct: PI3 Kinase γ IC50; other: PI3 Kinase γ; other: PI3 Kinase γ isoform, fluorescence polarization
T3 sequence (P48736 whole entry, canonical isoform): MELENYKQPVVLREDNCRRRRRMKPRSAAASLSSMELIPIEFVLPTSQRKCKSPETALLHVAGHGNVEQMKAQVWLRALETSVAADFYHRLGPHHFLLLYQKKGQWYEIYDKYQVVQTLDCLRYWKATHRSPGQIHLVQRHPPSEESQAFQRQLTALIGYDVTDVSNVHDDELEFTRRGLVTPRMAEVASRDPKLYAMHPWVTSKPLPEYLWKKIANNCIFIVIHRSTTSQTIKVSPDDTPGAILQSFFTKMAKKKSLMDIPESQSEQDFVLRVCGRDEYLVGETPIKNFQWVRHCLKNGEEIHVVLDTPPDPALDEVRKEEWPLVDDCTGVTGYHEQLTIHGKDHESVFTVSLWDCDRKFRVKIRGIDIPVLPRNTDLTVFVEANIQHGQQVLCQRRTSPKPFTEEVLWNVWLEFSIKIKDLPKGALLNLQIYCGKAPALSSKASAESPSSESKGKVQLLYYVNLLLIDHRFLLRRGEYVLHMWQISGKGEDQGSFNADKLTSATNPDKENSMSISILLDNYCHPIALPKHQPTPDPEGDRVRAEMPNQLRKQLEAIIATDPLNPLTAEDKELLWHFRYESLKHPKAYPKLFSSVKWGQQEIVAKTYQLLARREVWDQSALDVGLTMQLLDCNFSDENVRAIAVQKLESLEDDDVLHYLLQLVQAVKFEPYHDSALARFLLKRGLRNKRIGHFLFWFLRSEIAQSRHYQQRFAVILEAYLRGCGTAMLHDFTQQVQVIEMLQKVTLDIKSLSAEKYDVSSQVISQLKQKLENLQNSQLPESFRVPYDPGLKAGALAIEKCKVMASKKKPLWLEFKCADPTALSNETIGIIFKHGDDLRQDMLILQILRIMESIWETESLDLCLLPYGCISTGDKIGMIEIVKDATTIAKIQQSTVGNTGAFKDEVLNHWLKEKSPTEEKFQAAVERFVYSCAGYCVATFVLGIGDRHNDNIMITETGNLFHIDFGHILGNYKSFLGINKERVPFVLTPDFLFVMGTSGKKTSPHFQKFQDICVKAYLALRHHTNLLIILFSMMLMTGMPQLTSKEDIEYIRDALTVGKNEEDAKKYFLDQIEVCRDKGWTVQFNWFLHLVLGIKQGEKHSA
The assay is described as follows: Fluorescence polarization assay for PI3K. The settings on record: read-out: PI3 Kinase γ IC50. The assay is classed as biochemical. The gist of the method: as §1

A further assay relates to prostate line LNCap. The assay is described as follows: In vitro cell culture growth assay (MTS), LNCap. The assay is classed as cell-based. The settings on record: Homo sapiens, LNCaP, 72 h, LNCap cells, three days after drug treatment. The gist of the method: (§2)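 Plate cells; add inhibitors on day 1; after 3 days' treatment, add MTS; read A490; express as percent growth of vehicle-treated control.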

The next assay deals with breast line MDA468. In words: In vitro cell culture growth assay (MTS), MDA468. The settings on record: Homo sapiens, 72 h, MDA468 cells, three days after drug treatment. The assay is classed as cell-based. The method, boiled down: as §2
Where [3] appears, read: purified human mTOR enzyme, DELFIA format.
[4] abbreviates: PI3 Kinase α isoform, fluorescence polarization.
Setting [5] is: PI3 Kinase γ isoform, fluorescence polarization.

T2 sequence (P42336 whole entry, canonical isoform): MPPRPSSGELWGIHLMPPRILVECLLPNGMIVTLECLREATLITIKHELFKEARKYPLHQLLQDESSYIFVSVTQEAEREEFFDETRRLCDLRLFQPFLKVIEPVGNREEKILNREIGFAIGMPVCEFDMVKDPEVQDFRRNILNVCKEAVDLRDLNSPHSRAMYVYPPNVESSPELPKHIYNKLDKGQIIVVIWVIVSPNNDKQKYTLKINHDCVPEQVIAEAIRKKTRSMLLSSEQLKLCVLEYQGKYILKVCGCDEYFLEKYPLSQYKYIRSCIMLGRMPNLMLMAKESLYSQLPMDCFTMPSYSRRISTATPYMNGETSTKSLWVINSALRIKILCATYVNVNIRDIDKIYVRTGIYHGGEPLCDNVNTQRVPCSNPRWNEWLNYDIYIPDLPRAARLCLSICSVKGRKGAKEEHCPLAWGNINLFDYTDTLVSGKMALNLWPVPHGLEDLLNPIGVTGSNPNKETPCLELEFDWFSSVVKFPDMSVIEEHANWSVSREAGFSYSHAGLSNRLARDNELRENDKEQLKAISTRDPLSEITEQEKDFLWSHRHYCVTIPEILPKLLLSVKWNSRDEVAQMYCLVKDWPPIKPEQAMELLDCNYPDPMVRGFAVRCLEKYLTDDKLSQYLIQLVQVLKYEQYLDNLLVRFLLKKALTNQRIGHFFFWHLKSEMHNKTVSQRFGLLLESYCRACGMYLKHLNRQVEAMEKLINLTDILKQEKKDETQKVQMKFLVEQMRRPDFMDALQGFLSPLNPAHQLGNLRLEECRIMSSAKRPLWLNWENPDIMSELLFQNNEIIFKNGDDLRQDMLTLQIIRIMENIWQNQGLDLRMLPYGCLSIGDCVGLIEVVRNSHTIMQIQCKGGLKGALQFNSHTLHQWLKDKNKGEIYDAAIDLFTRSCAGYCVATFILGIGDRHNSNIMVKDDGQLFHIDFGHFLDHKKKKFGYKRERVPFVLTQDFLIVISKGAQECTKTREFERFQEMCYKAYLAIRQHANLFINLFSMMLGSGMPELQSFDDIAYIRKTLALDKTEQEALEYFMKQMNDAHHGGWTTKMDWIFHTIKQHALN

Regarding `CCn1ncc2c(N3CC4CCC(C3)O4)nc(-c3ccc(NC(=O)NCC(=O)NCCN(C)C)cc3)nc21` [Example 278], the concentration for half-maximal inhibition (IC50) at Human mTOR (FLAG-TOR) was determined as 42 nM; at PI3K [1] (PI3 Kinase α), 311 nM; on PI3K [2] (PI3 Kinase γ), 494 nM; with prostate line LNCap, 2200 nM; with breast line MDA468, 5200 nM.

As to `CCn1ncc2c(N3CC4CCC(C3)O4)nc(-c3ccc(NC(=O)NCCCN)cc3)nc21` [Example 176, 1-(3-aminopropyl)-3-{4-[1-ethyl-4-(8-oxa-3-azabicyclo[3.2.1]oct-3-yl)-1H-pyrazolo[3,4-d]pyrimidin-6-yl]phenyl}urea], the IC50 was found to be 3.55 nM at Human mTOR (FLAG-TOR); 386 nM on PI3K [1] (PI3 Kinase α); 9500 nM on PI3K [2] (PI3 Kinase γ); 5500 nM with prostate line LNCap; 28000 nM in the assay with breast line MDA468.

As to `CCn1ncc2c(N3CC4CCC(C3)O4)nc(-c3ccc(NC(=O)Nc4ccc(C(=O)NN(C)C)cc4)cc3)nc21` [Example 289, 1-{4-[(2,2-dimethylhydrazino)carbonyl]phenyl}-3-{4-[1-ethyl-4-(8-oxa-3-azabicyclo[3.2.1]oct-3-yl)-1H-pyrazolo[3,4-d]pyrimidin-6-yl]phenyl}urea], the IC50 against Human mTOR (FLAG-TOR) was 0.33 nM; at PI3K [1] (PI3 Kinase α), 109 nM; at PI3K [2] (PI3 Kinase γ), 706 nM; in the assay on prostate line LNCap, below 1 nM; with breast line MDA468, below 1 nM.

On to `CC(=O)Nc1ccc(-c2nc(N3CC4CCC(C3)O4)c3sccc3n2)cc1` [Example 415, N-{4-[4-(8-oxa-3-azabicyclo[3.2.1]oct-3-yl)thieno[3,2-d]pyrimidin-2-yl]phenyl}acetamide], for which the half-maximal inhibitory concentration (IC50) was 26 nM against Human mTOR (FLAG-TOR) (setting [3]); 4370 nM on PI3K [1] (setting [4]); above 10000 nM on PI3K [2] (setting [5]); 1700 nM with prostate line LNCap; 8500 nM in the assay on breast line MDA468.

Turning to `CCn1ncc2c(N3CC4CCC(C3)O4)nc(-c3ccc(NC(=O)Nc4ccc(OCCO)nc4)cc3)nc21` [Example 282, 1-{4-[1-ethyl-4-(8-oxa-3-azabicyclo[3.2.1]oct-3-yl)-1H-pyrazolo[3,4-d]pyrimidin-6-yl]phenyl}-3-[6-(2-hydroxyethoxy)pyridin-3-yl]urea], the IC50 was 0.3 nM against Human mTOR (FLAG-TOR); 166 nM at PI3K [1] (PI3 Kinase α); 1160 nM on PI3K [2] (PI3 Kinase γ); 5 nM in the assay with prostate line LNCap; 21 nM in the assay on breast line MDA468.

`CCOC(=O)Nc1ccc(-c2nc(N3CC4CCC(C3)O4)c3cnn(C4CCN(C(=O)OC)CC4)c3n2)cc1` [Example 111, methyl 4-[6-{4-[(ethoxycarbonyl)amino]phenyl}-4-(8-oxa-3-azabicyclo[3.2.1]oct-3-yl)-1H-pyrazolo[3,4-d]pyrimidin-1-yl]piperidine-1-carboxylate]: the IC50 stood at 8.5 nM against Human mTOR (FLAG-TOR); 3340 nM at PI3K [1] (PI3 Kinase α); 12000 nM on PI3K [2] (PI3 Kinase γ); 700 nM with prostate line LNCap; 6000 nM in the assay with breast line MDA468.

Regarding `COCCOC(=O)Nc1ccc(-c2nc(N3CC4CCC(C3)O4)c3cnn(C4CCN(C(=O)OC)CC4)c3n2)cc1` [Example 113, methyl 4-[6-(4-{[(2-methoxyethoxy)carbonyl]amino}phenyl)-4-(8-oxa-3-azabicyclo[3.2.1]oct-3-yl)-1H-pyrazolo[3,4-d]pyrimidin-1-yl]piperidine-1-carboxylate], the IC50 was 225 nM on Human mTOR (FLAG-TOR); 7510 nM on PI3K [1] (PI3 Kinase α); above 10000 nM on PI3K [2] (PI3 Kinase γ); 2700 nM in the assay with prostate line LNCap; 30000 nM with breast line MDA468.

For the compound `CC(C)C(=O)N1CCC(n2ncc3c(N4CC5CCC(C4)O5)nc(-c4ccc(NC(=O)Nc5ccncc5)cc4)nc32)CC1` [Example 89, 1-{4-[1-(1-isobutyrylpiperidin-4-yl)-4-(8-oxa-3-azabicyclo[3.2.1]oct-3-yl)-1H-pyrazolo[3,4-d]pyrimidin-6-yl]phenyl}-3-pyridin-4-ylurea], the IC50 on Human mTOR (FLAG-TOR) came to 0.26 nM; at PI3K [1] (PI3 Kinase α), 301 nM; on PI3K [2] (PI3 Kinase γ), 2380 nM; with prostate line LNCap, 15 nM; with breast line MDA468, 63 nM.

With `CNC(=O)Nc1ccc(-c2nc(N3C4CCC3COC4)c3cnn(CC(F)(F)F)c3n2)cc1` [Example 267, 1-methyl-3-{4-[4-(3-oxa-8-azabicyclo[3.2.1]oct-8-yl)-1-(2,2,2-trifluoroethyl)-1H-pyrazolo[3,4-d]pyrimidin-6-yl]phenyl}urea], the IC50 against Human mTOR (FLAG-TOR) was found to be 0.565 nM; at PI3K [1] (PI3 Kinase α), 1370 nM; at PI3K [2] (PI3 Kinase γ), 9000 nM; in the assay with prostate line LNCap, 9 nM; with breast line MDA468 it was 40 nM.

For `O=C(Nc1ccc(-c2nc(N3CC4CCC(C3)O4)c3cnn(C4CCC5(CC4)OCCO5)c3n2)cc1)Nc1cccnc1` [Example 376, 1-{4-[1-(1,4-dioxaspiro[4.5]dec-8-yl)-4-(8-oxa-3-azabicyclo[3.2.1]oct-3-yl)-1H-pyrazolo[3,4-d]pyrimidin-6-yl]phenyl}-3-pyridin-3-ylurea], the concentration for half-maximal inhibition (IC50) at Human mTOR (FLAG-TOR) (setting [3]) was found to be 0.125 nM; on PI3K [1] (setting [4]), 270 nM; on PI3K [2] (setting [5]), 4060 nM; in the assay with prostate line LNCap, 1 nM; with breast line MDA468 it was 5 nM.

On to `O=C(Nc1ccc(OCCO)cc1)Nc1ccc(-c2nc(N3CC4CCC(C3)O4)c3cnn(CC(F)(F)F)c3n2)cc1` [Example 263, 1-[4-(2-hydroxyethoxy)phenyl]-3-{4-[4-(8-oxa-3-azabicyclo[3.2.1]oct-3-yl)-1-(2,2,2-trifluoroethyl)-1H-pyrazolo[3,4-d]pyrimidin-6-yl]phenyl}urea], for which the half-inhibitory concentration (IC50) at Human mTOR (FLAG-TOR) is 0.215 nM; on PI3K [1] (PI3 Kinase α), 147 nM; on PI3K [2] (PI3 Kinase γ), 10400 nM; with prostate line LNCap, below 1 nM; in the assay on breast line MDA468 it was 5 nM.

`CCn1nc(C=O)c2c(N3CC4CCC(C3)O4)nc(-c3ccc(NC(=O)NC)cc3)nc21` [Example 352, 1-{4-[1-ethyl-3-formyl-4-(8-oxa-3-azabicyclo[3.2.1]oct-3-yl)-1H-pyrazolo[3,4-d]pyrimidin-6-yl]phenyl}-3-methylurea]: the half-maximal inhibitory concentration (IC50) stood at 17.5 nM on Human mTOR (FLAG-TOR) (setting [3]); 1080 nM at PI3K [1] (setting [4]); 6100 nM at PI3K [2] (setting [5]); 200 nM in the assay with prostate line LNCap; 700 nM with breast line MDA468.

In the case of `CNC(=O)Nc1ccc(-c2nc(N3CC4CCC(C3)O4)c3cnn(C4CCC5(CC4)OCCCO5)c3n2)cc1` [Example 151, 1-{4-[1-(1,5-dioxaspiro[5.5]undec-9-yl)-4-(8-oxa-3-azabicyclo[3.2.1]oct-3-yl)-1H-pyrazolo[3,4-d]pyrimidin-6-yl]phenyl}-3-methylurea], the half-maximal inhibitory concentration (IC50) against Human mTOR (FLAG-TOR) is 1.19 nM; on PI3K [1] (PI3 Kinase α), 363 nM; on PI3K [2] (PI3 Kinase γ), above 10000 nM; with prostate line LNCap, 8 nM; with breast line MDA468 it was 130 nM.

Regarding `O=C(Nc1ccc(-c2nc(N3CC4CCC(C3)O4)c3cnn(CC(F)(F)F)c3n2)cc1)Nc1ccc(N2CCOCC2)cc1` [Example 251, 1-(4-morpholin-4-ylphenyl)-3-{4-[4-(8-oxa-3-azabicyclo[3.2.1]oct-3-yl)-1-(2,2,2-trifluoroethyl)-1H-pyrazolo[3,4-d]pyrimidin-6-yl]phenyl}urea], the IC50 is 0.34 nM against Human mTOR (FLAG-TOR); 1000 nM at PI3K [1] (PI3 Kinase α); above 10000 nM at PI3K [2] (PI3 Kinase γ); below 1 nM with prostate line LNCap; below 1 nM in the assay on breast line MDA468.

Take `CCNC(=O)Nc1ccc(-c2nc(N3CC4CCC(C3)O4)c3cnn(C)c3n2)cc1` [Example 51, 1-ethyl-3-{4-[1-methyl-4-(8-oxa-3-azabicyclo[3.2.1]oct-3-yl)-1H-pyrazolo[3,4-d]pyrimidin-6-yl]phenyl}urea]: the IC50 worked out at 1.6 nM against Human mTOR (FLAG-TOR); 799 nM on PI3K [1] (PI3 Kinase α); 7910 nM at PI3K [2] (PI3 Kinase γ); 46 nM in the assay on prostate line LNCap; 390 nM with breast line MDA468.

Consider `CCn1ncc2c(N3CC4CCC(C3)O4)nc(-c3ccc(NC(=O)NCCN(C)C)cc3)nc21` [Example 175, 1-[2-(dimethylamino)ethyl]-3-{4-[1-ethyl-4-(8-oxa-3-azabicyclo[3.2.1]oct-3-yl)-1H-pyrazolo[3,4-d]pyrimidin-6-yl]phenyl}urea], for which the IC50 on Human mTOR (FLAG-TOR) came out at 52 nM; at PI3K [1] (PI3 Kinase α) it was 836 nM; at PI3K [2] (PI3 Kinase γ), 668 nM; in the assay with prostate line LNCap, 350 nM; in the assay with breast line MDA468, 1250 nM.

With `COC(=O)N1CCC(n2ncc3c(N4CC5CCC(C4)O5)nc(-c4ccc(NC(=O)OCCN5CCCC5)cc4)nc32)CC1` [Example 116, methyl 4-[4-(8-oxa-3-azabicyclo[3.2.1]oct-3-yl)-6-(4-{[(2-pyrrolidin-1-ylethoxy)carbonyl]amino}phenyl)-1H-pyrazolo[3,4-d]pyrimidin-1-yl]piperidine-1-carboxylate], the concentration for half-maximal inhibition (IC50) stood at 335 nM on Human mTOR (FLAG-TOR); 2660 nM on PI3K [1] (PI3 Kinase α); 6740 nM on PI3K [2] (PI3 Kinase γ); 1700 nM in the assay on prostate line LNCap; 4000 nM with breast line MDA468.

Regarding `COCC(COC)n1ncc2c(N3CC4CCC(C3)O4)nc(-c3ccc(NC(=O)Nc4ccc(C(=O)NN(C)C)cc4)cc3)nc21` [Example 336, 1-{4-[(2,2-dimethylhydrazino)carbonyl]phenyl}-3-(4-{1-[2-methoxy-1-(methoxymethyl)ethyl]-4-(8-oxa-3-azabicyclo[3.2.1]oct-3-yl)-1H-pyrazolo[3,4-d]pyrimidin-6-yl}phenyl)urea], the concentration for half-maximal inhibition (IC50) against Human mTOR (FLAG-TOR) (setting [3]) was 2.75 nM; at PI3K [1] (setting [4]) it was 666 nM; on PI3K [2] (setting [5]), above 10000 nM; in the assay with prostate line LNCap, below 1 nM; in the assay on breast line MDA468, 4 nM.

What is called IC50 is the concentration at which inhibition is half-maximal.
